This is an account of results in patent publication US11524968B2, “Heterocyclic compound as a protein kinase inhibitor” (HK inno.N Corporation, priority 2017, dated 2022).

The target in this assay is JAK1 (Homo sapiens (Human), UniProt P23458). Nature of the assay: Analysis of JAK1 activity inhibition ability (ADP-Glo Kinase Assay). It counts as biochemical. The following applies: JAK1 enzyme, ADP-Glo luminescence, ATP 250 uM, IRS-itide substrate, 30° C. 40 minutes; read-out: IC50. The gist of the method:
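JAK1 enzyme, IRS-itide substrate (40 ng/mL) and 250 uM ATP, both as prepared in kinase buffer (Tris-HCl pH 7.5, MgCl2, BSA, DTT), reacted with compound 40 min at 30 °C. ADP formed was detected by ADP-Glo luminescence; IC50 is the concentration giving 50% inhibition versus control.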

Chain of JAK1 (P23458 whole entry): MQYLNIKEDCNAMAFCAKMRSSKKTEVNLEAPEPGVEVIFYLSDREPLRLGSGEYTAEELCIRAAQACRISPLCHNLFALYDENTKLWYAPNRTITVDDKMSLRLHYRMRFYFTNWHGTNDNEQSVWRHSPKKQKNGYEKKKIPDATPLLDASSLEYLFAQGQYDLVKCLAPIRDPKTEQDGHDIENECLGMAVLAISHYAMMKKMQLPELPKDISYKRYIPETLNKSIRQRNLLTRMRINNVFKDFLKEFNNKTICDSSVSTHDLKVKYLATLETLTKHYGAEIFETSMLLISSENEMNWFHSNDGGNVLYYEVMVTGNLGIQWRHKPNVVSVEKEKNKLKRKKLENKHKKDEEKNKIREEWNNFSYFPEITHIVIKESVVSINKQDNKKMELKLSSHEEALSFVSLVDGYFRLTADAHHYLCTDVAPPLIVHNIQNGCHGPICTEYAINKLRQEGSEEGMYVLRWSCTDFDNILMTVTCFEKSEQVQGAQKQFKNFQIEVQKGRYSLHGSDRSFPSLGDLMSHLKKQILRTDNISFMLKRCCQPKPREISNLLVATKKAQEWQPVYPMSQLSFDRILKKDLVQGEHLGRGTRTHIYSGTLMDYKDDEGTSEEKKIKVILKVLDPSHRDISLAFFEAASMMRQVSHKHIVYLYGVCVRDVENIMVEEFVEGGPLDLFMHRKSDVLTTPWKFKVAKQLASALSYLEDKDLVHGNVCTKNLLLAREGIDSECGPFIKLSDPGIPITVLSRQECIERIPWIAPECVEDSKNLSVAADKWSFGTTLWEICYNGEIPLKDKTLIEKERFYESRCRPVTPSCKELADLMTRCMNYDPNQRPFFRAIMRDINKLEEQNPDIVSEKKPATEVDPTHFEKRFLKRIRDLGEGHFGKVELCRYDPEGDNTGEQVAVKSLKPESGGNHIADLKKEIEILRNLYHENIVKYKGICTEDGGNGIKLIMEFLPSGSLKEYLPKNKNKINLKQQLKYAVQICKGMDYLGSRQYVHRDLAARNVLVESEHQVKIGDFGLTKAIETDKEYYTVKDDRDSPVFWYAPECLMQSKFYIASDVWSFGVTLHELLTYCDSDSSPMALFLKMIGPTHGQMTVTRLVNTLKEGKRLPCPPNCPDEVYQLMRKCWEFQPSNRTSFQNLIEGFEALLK

`O=C(Nc1nc(-c2ccc(NS(=O)(=O)c3ccc(F)c(F)c3)c(F)c2)c2cc[nH]c2n1)C1CC1` [Example 205, N-(4-(4-((3,4-difluorophenyl)sulfonamido)-3-fluorophenyl)-7H-pyrrolo[2,3-d]pyrimidin-2-yl)cyclopropanecarboxamide]: the IC50 fell in the range of 20 to 200 nM.
As for `CCCS(=O)(=O)Nc1ccc(-c2nc(NC(=O)C3CC3)nc3[nH]ccc23)cc1F` [Example 206, N-(4-(3-fluoro-4-(propylsulfonamido)phenyl)-7H-pyrrolo[2,3-d]pyrimidin-2-yl)cyclopropanecarboxamide], the IC50 was in the range of 20 to 200 nM.
On to `CCS(=O)(=O)Nc1ccc(-c2cc(NC(=O)C3CC3)nc3[nH]cnc23)cc1` [Example 207, N-(7-(4-(ethylsulfonamido)phenyl)-3H-imidazo[4,5-b]pyridin-5-yl)cyclopropanecarboxamide], for which the IC50 is greater than 200 nM.
For `O=C(Nc1nc(-c2ccc(NS(=O)(=O)c3ccc(F)c(F)c3)cc2)c2nc[nH]c2n1)C1CC1` [Example 208, N-(6-(4-((3,4-difluorophenyl)sulfonamido)phenyl)-9H-purin-2-yl)cyclopropanecarboxamide], the IC50 was greater than 200 nM.
Take `CCS(=O)(=O)Nc1ccc(-c2nc(NC(=O)C3CC3)nc3[nH]cnc23)cc1` [Example 209, N-(6-(4-(ethylsulfonamido)phenyl)-9H-purin-2-yl)cyclopropanecarboxamide]: the IC50 is greater than 200 nM.
In the case of `N#CCCCS(=O)(=O)Nc1ccc(-c2nc(NC(=O)C3CC3)nc3[nH]cnc23)cc1` [Example 210, N-(6-(4-((3-cyanopropyl)sulfonamido)phenyl)-9H-purin-2-yl)cyclopropanecarboxamide] it was greater than 200 nM; in that of `O=C(Nc1nc(-c2ccc(NS(=O)(=O)CCCC(F)(F)F)cc2)c2nc[nH]c2n1)C1CC1` [Example 211, N-(6-(4-((4,4,4-trifluorobutyl)sulfonamido)phenyl)-9H-purin-2-yl)cyclopropanecarboxamide], greater than 200 nM.
Take `CCCS(=O)(=O)N1CC=C(c2cc(NC(=O)C3CC3)nc3[nH]ccc23)C1` [Example 212, N-(4-(1-(propylsulfonyl)-2,5-dihydro-1H-pyrrol-3-yl)-1H-pyrrolo[2,3-b]pyridin-6-yl)cyclopropanecarboxamide]: the IC50 was greater than 200 nM.
As to `N#CC1(CS(=O)(=O)N2CC=C(c3cc(NC(=O)C4CC4)nc4[nH]ccc34)C2)CC1` [Example 213, N-(4-(1-(((1-cyanocyclopropyl)methyl)sulfonyl)-2,5-dihydro-1H-pyrrol-3-yl)-1H-pyrrolo[2,3-b]pyridin-6-yl)cyclopropanecarboxamide], the IC50 was greater than 200 nM.
As for `O=C(Nc1cc(-c2ccc(NS(=O)(=O)N3CCOCC3)cc2)c2cc[nH]c2n1)C1CC1` [Example 214, N-(4-(4-(morpholine-4-sulfonamido)phenyl)-1H-pyrrolo[2,3-b]pyridin-6-yl)cyclopropanecarboxamide], the IC50 was less than 20 nM.
As for `CCN(C)S(=O)(=O)Nc1ccc(-c2cc(NC(=O)C3CC3)nc3[nH]ccc23)cc1` [Example 215, N-(4-(4-((N-ethyl-N-methylsulfamoyl)amino)phenyl)-1H-pyrrolo[2,3-b]pyridin-6-yl)cyclopropanecarboxamide], the IC50 was less than 20 nM.
In the case of `CCN(CC)S(=O)(=O)Nc1ccc(-c2cc(NC(=O)C3CC3)nc3[nH]ccc23)cc1` [Example 216, N-(4-(4-((N,N-diethylsulfamoyl)amino)phenyl)-1H-pyrrolo[2,3-b]pyridin-6-yl)cyclopropanecarboxamide] it was 20 to 200 nM; in that of `CN(C1CC1)S(=O)(=O)Nc1ccc(-c2cc(NC(=O)C3CC3)nc3[nH]ccc23)cc1` [Example 217, N-(4-(4-((N-cyclopropyl-N-methylsulfamoyl)amino)phenyl)-1H-pyrrolo[2,3-b]pyridin-6-yl)cyclopropanecarboxamide], less than 20 nM.
On to `O=C(Nc1cc(-c2ccc(NS(=O)(=O)N3CCCC3)cc2)c2cc[nH]c2n1)C1CC1` [Example 218, N-(4-(4-(pyrrolidine-1-sulfonamido)phenyl)-1H-pyrrolo[2,3-b]pyridin-6-yl)cyclopropanecarboxamide], for which the IC50 is less than 20 nM.
Under `O=C(Nc1cc(-c2ccc(NS(=O)(=O)N3CCCCC3)cc2)c2cc[nH]c2n1)C1CC1` [Example 219, N-(4-(4-(piperidine-1-sulfonamido)phenyl)-1H-pyrrolo[2,3-b]pyridin-6-yl)cyclopropanecarboxamide] stands less than 20 nM; under `CC1CN(S(=O)(=O)Nc2ccc(-c3cc(NC(=O)C4CC4)nc4[nH]ccc34)cc2)CC(C)O1` (centres unmarked) [Example 220, N-(4-(4-((2,6-dimethylmorpholine)-4-sulfonamido)phenyl)-1H-pyrrolo[2,3-b]pyridin-6-yl)cyclopropanecarboxamide], 20 to 200 nM.
Under `N#CC1CN(S(=O)(=O)Nc2ccc(-c3cc(NC(=O)C4CC4)nc4[nH]ccc34)cc2)C1` [Example 221, N-(4-(4-((3-cyanoazetidine)-1-sulfonamido)phenyl)-1H-pyrrolo[2,3-b]pyridin-6-yl)cyclopropanecarboxamide] stands 20 to 200 nM; under `CC(C)N(C)S(=O)(=O)Nc1ccc(-c2cc(NC(=O)C3CC3)nc3[nH]ccc23)cc1` [Example 222, N-(4-(4-((N-isopropyl-N-methylsulfamoyl)amino)phenyl)-1H-pyrrolo[2,3-b]pyridin-6-yl)cyclopropanecarboxamide], 20 to 200 nM; under `COCCN(C)S(=O)(=O)Nc1ccc(-c2cc(NC(=O)C3CC3)nc3[nH]ccc23)cc1` [Example 223, N-(4-(4-((N-(2-methoxyethyl)-N-methylsulfamoyl)amino)phenyl)-1H-pyrrolo[2,3-b]pyridin-6-yl)cyclopropanecarboxamide], 20 to 200 nM.
Under `O=C(Nc1cc(-c2ccc(NS(=O)(=O)N3CCCCC3)c(F)c2)c2cc[nH]c2n1)C1CC1` [Example 224, N-(4-(3-fluoro-4-(piperidine-1-sulfonamido)phenyl)-1H-pyrrolo[2,3-b]pyridin-6-yl)cyclopropanecarboxamide] stands less than 20 nM; under `O=C(Nc1cc(-c2ccc(NS(=O)(=O)N3CCCC3)c(F)c2)c2cc[nH]c2n1)C1CC1` [Example 225, N-(4-(3-fluoro-4-(pyrrolidine-1-sulfonamido)phenyl)-1H-pyrrolo[2,3-b]pyridin-6-yl)cyclopropanecarboxamide], less than 20 nM; under `O=C(Nc1cc(-c2ccc(NS(=O)(=O)N3CCOCC3)c(F)c2)c2cc[nH]c2n1)C1CC1` [Example 226, N-(4-(3-fluoro-4-(morpholine-4-sulfonamido)phenyl)-1H-pyrrolo[2,3-b]pyridin-6-yl)cyclopropanecarboxamide], less than 20 nM.
Take `Cc1cc(NS(=O)(=O)NCC(F)(F)F)ccc1-c1cc(NC(=O)C2CC2)nc2[nH]ccc12` [Example 227, N-(4-(2-methyl-4-((N-(2,2,2-trifluoroethyl)sulfamoyl)amino)phenyl)-1H-pyrrolo[2,3-b]pyridin-6-yl)cyclopropanecarboxamide]: the IC50 was 20 to 200 nM.
Under `Cc1cc(NS(=O)(=O)N(C)CC(F)(F)F)ccc1-c1cc(NC(=O)C2CC2)nc2[nH]ccc12` [Example 228, N-(4-(2-methyl-4-((N-methyl-N-(2,2,2-trifluoroethyl)sulfamoyl)amino)phenyl)-1H-pyrrolo[2,3-b]pyridin-6-yl)cyclopropanecarboxamide] stands less than 20 nM; under `O=C(Nc1cc(-c2ccc(NS(=O)(=O)N3CCS(=O)(=O)CC3)cc2)c2cc[nH]c2n1)C1CC1` [Example 229, N-(4-(4-((1,1-dioxidothiomorpholine)-4-sulfonamido)phenyl)-1H-pyrrolo[2,3-b]pyridin-6-yl)cyclopropanecarboxamide], less than 20 nM.
For the molecule `CS(=O)(=O)N1CCN(S(=O)(=O)Nc2ccc(-c3cc(NC(=O)C4CC4)nc4[nH]ccc34)cc2)CC1` [Example 230, N-(4-(4-((4-(methylsulfonyl)piperazine)-1-sulfonamido)phenyl)-1H-pyrrolo[2,3-b]pyridin-6-yl)cyclopropanecarboxamide], the IC50 is less than 20 nM.
On to `O=C(Nc1cc(C2=CCC(NS(=O)(=O)N3CCOCC3)CC2)c2cc[nH]c2n1)C1CC1` (centres unmarked) [Example 231, N-(4-(4-(morpholine-4-sulfonamido)cyclohex-1-en-1-yl)-1H-pyrrolo[2,3-b]pyridin-6-yl)cyclopropanecarboxamide], for which the IC50 was less than 20 nM.
With `O=C(Nc1cc(C2=CCN(S(=O)(=O)NCC(F)(F)F)CC2)c2cc[nH]c2n1)C1CC1` [Example 232, N-(4-(1-(N-(2,2,2-trifluoroethyl)sulfamoyl)-1,2,3,6-tetrahydropyridin-4-yl)-1H-pyrrolo[2,3-b]pyridin-6-yl)cyclopropanecarboxamide], the IC50 was 20 to 200 nM.
Turning to `CN(CC(F)(F)F)S(=O)(=O)N1CC=C(c2cc(NC(=O)C3CC3)nc3[nH]ccc23)CC1` [Example 233, N-(4-(1-(N-methyl-N-(2,2,2-trifluoroethyl)sulfamoyl)-1,2,3,6-tetrahydropyridin-4-yl)-1H-pyrrolo[2,3-b]pyridin-6-yl)cyclopropanecarboxamide], the IC50 fell in the range of 20 to 200 nM.
As to `O=C(Nc1cc(C2=CCN(S(=O)(=O)N3CCOCC3)CC2)c2cc[nH]c2n1)C1CC1` [Example 234, N-(4-(1-(morpholinosulfonyl)-1,2,3,6-tetrahydropyridin-4-yl)-1H-pyrrolo[2,3-b]pyridin-6-yl)cyclopropanecarboxamide], the IC50 is 20 to 200 nM.
With `O=C(Nc1nc(-c2ccc(NS(=O)(=O)N3CCOCC3)cc2)c2cc[nH]c2n1)C1CC1` [Example 235, N-(4-(4-(morpholine-4-sulfonamido)phenyl)-7H-pyrrolo[2,3-d]pyrimidin-2-yl)cyclopropanecarboxamide], the IC50 lay in the range of 20 to 200 nM.
Turning to `CN(C)S(=O)(=O)Nc1ccc(-c2nc(NC(=O)C3CC3)nc3[nH]ccc23)cc1` [Example 236, N-(4-(4-((N,N-dimethylsulfamoyl)amino)phenyl)-7H-pyrrolo[2,3-d]pyrimidin-2-yl)cyclopropanecarboxamide], the IC50 lay within 20 to 200 nM.

A word on the IC50: it is the concentration at which inhibition is half-maximal.
